Measurements: patent US20240197897A1, “HETEROTANDEM BICYCLIC PEPTIDE COMPLEXES” (Bicycle Tx Limited, priority 2021, published 2024)
Where two headings read alike, the source gives them in different places. Starred links: 1 amine or outer side, 2 acyl side, 3 side chain; linkers in the order of their positions; H or OH if unused. Positions of bridges follow the written chain, without caps; N, C: chain ends. Non-standard residues stand in square brackets, D forms with d. Residues, ends and D or L forms follow the SMILES beside them. Chains are numbered I, II in the order given. No end group written: not given here. *: point of attachment. X3 = O=C(CCOCCOCCOCCOCCOCCOCCOCCOCCOCCOCCOCCOCCOCCOCCOCCOCCOCCOCCOCCOCCOCCOCCOCCOCCn1cc(CCC(=O)[*:2])nn1)[*:1]; TBMT = 2,4,6-tris(bromomethyl)-s-triazine, molecular scaffold, C(c1nc(C[*:2])nc(C[*:3])n1)[*:1]; X1 = O=C(CCOCCOCCOCCN(CCOCCOCCOCCn1cc(CCC(=O)[*:2])nn1)CCOCCOCCOCCn1cc(CCC(=O)[*:3])nn1)[*:1]; TATA = O=C(CC[*:1])N1CN(C(=O)CC[*:2])CN(C(=O)CC[*:3])C1; Hyp = O=C(O)[C@@H]1C[C@@H](O)CN1; hArg = N=C(N)NCCCC[C@H](N)C(=O)O; Cba = N[C@@H](CC1CCC1)C(=O)O; Pent4ynoyl = C#CCCC(=O)*

Experiments:
[1] = NK cytotoxicity assay (NK:HT1080-luc co-culture, luciferase readout); assay type: cell-based, human; conditions: NK:HT1080-luc co-culture, 24 hours, read-out: EC50 NK cytotoxicity (tumor cell killing)
Procedure: (§1) Heterotandem bicyclic peptide complexes were evaluated for NK functional readouts (cytotoxicity and cytokine secretion) in NK-tumor cell line co-cultures.
(§2) NK cells were isolated using a negative isolation kit (STEMCELL™ Technologies 17955) from the total PBMC population purified from whole blood. NK cell pellet was then resuspended in DMEM medium (Corning™ 10-013-CV) with 10% heat-inactivated fetal bovine serum (FBS; Corning® 35-011-CV), 10 mM HEPES (Gibco™ 15-630-080), and 1% Penicillin Streptomycin (Corning™ 30-002-CI), and 50 IU/mL human IL-2 (Miltenyi Biotec® 130-097-748), at a concentration of 4×10^5 cells/mL. For the NK cell cytotoxicity assays, 50 μL (2×10^4) of cell suspension was plated in the 96-well plate (Grenier® Bio One™ 655090) containing 50 μl (4×10^3) HT1080-luc cells (ATCC® CCL-121-luc2) in DMEM (Gibco™ 11875-093; with L-glutamine) with 10% heat-inactivated fetal bovine serum (FBS; Corning® 35-011-CV), 10 mM HEPES (Gibco™ 15-630-080), and 1% Penicillin Streptomycin (Corning™ 30-002-CI). […] The plates were then incubated for 24 hours at 37° C., 5% CO2. Post-incubation, plates was centrifuged at 250×g for 5 minutes and 100 μl supernatant discarded. Samples were then incubated 10 minutes with 50 μl Bright-Glo™ Luciferase Assay system (Promega™ E2620). Luminescence upon excitation at 570 nm was read using a CLARIOstar® plate-reader with MARS Data Analysis Software™. Data was fit to a four-parameter non-linear regression in GraphPad Prism™ 8.0.2 to generate an EC50 value.

HT1080-luc cells = assay: as above; assay type: cell-based, human; conditions: for effect on tumor cell killing by NK cells, in words: in comparison to NK:HT1080-luc co-culture without heterotandem complex (NK-TICA)
Procedure: as §1, §2

[2] = four-parameter logistic regression, FIGS. 2-4, 6-8, 10

Compound | EC50 [1, 2] [nM] | effect on tumor cell killing by NK cells, in words (HT1080-luc cells) | EC50 (HT1080-luc cells; NK:HT1080-luc co-culture, 24 hours, four-parameter logistic regression, FIGS. 2-4, 6-8, 10, read-out: EC50 NK cytotoxicity (tumor cell killing)) [nM] | EC50 ([1]; FIG. 9) [nM]
CC[C@H](C)[C@@H]1NC(=O)CNC(=O)[C@H](Cc2c[nH]c3ccccc23)NC(=O)[C@H](CCC(N)=O)NC(=O)[C@@H]2CSCCC(=O)N3CN(CN(C3)C(=O)CCSC[C@@H](C(=O)N[C@@H](C)C(=O)N[C@@H](CCCCNC(=O)CCc3cn(CCOCCOCCOCCN(CCOCCOCCOCCC(=O)N[C@@H](C)C(=O)N[C@@H](CCCCNC(=N)N)C(=O)N[C@@H](CC(=O)O)C(=O)N[C@H]4CSCCC(=O)N5CN6CN(C5)C(=O)CCSC[C@H](NC(=O)[C@H](CC(C)C)NC(=O)[C@@H]5CCCN5C(=O)[C@H](CC(N)=O)NC(=O)[C@H](C(C)C)NC(=O)[C@H](CC(C)C)NC(=O)[C@@H]5C[C@@H](O)CN5C4=O)C(=O)N[C@@H](CC(C)C)C(=O)N[C@@H](Cc4c[nH]cn4)C(=O)N4CCC[C@H]4C(=O)N[C@H](CC(=O)O)C(=O)N[C@@H](Cc4c[nH]c5ccccc45)C(=O)N[C@@H](CCCCNC(=N)N)C(=O)N[C@H](C(N)=O)CSCCC6=O)CCOCCOCCOCCn4cc(CCC(=O)NCCCC[C@H](NC(=O)[C@H](C)NC(=O)[C@@H]5CSCCC(=O)N6CN7CN(C6)C(=O)CCSC[C@H](NC(=O)[C@H](CC(N)=O)NC(=O)[C@H](Cc6c[nH]cn6)NC(=O)[C@H]([C@@H](C)O)NC(=O)[C@H]([C@@H](C)O)NC(=O)[C@H](CC(C)C)NC(=O)[C@H](CC(=O)O)NC(=O)[C@@H](NC(=O)[C@H](C)N)CSCCC7=O)C(=O)N[C@@H](CCC(N)=O)C(=O)N[C@@H](Cc6c[nH]c7ccccc67)C(=O)NCC(=O)N[C@@H]([C@@H](C)CC)C(=O)N5)C(N)=O)nn4)nn3)C(N)=O)NC1=O)C(=O)CCSC[C@H](NC(=O)[C@H](C)N)C(=O)N[C@@H](CC(=O)O)C(=O)N[C@@H](CC(C)C)C(=O)N[C@@H]([C@@H](C)O)C(=O)N[C@@H]([C@@H](C)O)C(=O)N[C@@H](Cc1c[nH]cn1)C(=O)N[C@@H](CC(N)=O)C(=O)N2 [BCY15923] | 0.044 | dose-dependent NK cell response to kill |  | 
CC(=O)N[C@H]1CSCCC(=O)N2CN3CN(C2)C(=O)CCSC[C@H](NC(=O)[C@H](CC(C)C)NC(=O)[C@H](Cc2ccc(O)cc2)NC(=O)[C@H](CC(=O)O)NC(=O)[C@@H]2CCCN2C(=O)[C@H](CC2CCC2)NC(=O)[C@H](Cc2ccc(O)cc2)NC1=O)C(=O)N[C@H](C)C(=O)N[C@@H](CC(=O)O)C(=O)N[C@@H](CCC(=O)O)C(=O)N[C@@H](Cc1ccc(O)cc1)C(=O)N[C@H](C(=O)N[C@@H](CCCCNC(=O)CCc1cn(CCOCCOCCOCCN(CCOCCOCCOCCC(=O)N[C@@H](CC(C)C)C(=O)N2CCC[C@H]2C(=O)N2CCC[C@H]2C(=O)N[C@H]2CSCCC(=O)N4CN5CN(C4)C(=O)CCSC[C@H](NC(=O)[C@H](CCC(=O)O)NC(=O)[C@H](CCCCNC(=N)N)NC(=O)[C@H](C(C)C)NC2=O)C(=O)N[C@@H](C)C(=O)N[C@@H](CC(C)(C)C)C(=O)N[C@@H](CC(C)C)C(=O)N[C@@H](Cc2ccccc2)C(=O)N2CCC[C@H]2C(=O)N[C@@H](CCCCNC(=N)N)C(=O)N[C@@H]([C@@H](C)O)C(=O)N[C@H](C(N)=O)CSCCC5=O)CCOCCOCCOCCn2cc(CCC(=O)NCCCC[C@H](NC(=O)[C@@H]4CSCCC(=O)N5CN6CN(C5)C(=O)CCSC[C@H](NC(=O)[C@H](CC(C)C)NC(=O)[C@H](Cc5ccc(O)cc5)NC(=O)[C@H](CC(=O)O)NC(=O)[C@@H]5CCCN5C(=O)[C@H](CC5CCC5)NC(=O)[C@H](Cc5ccc(O)cc5)NC(=O)[C@@H](NC(C)=O)CSCCC6=O)C(=O)N[C@H](C)C(=O)N[C@@H](CC(=O)O)C(=O)N[C@@H](CCC(=O)O)C(=O)N[C@@H](Cc5ccc(O)cc5)C(=O)N4)C(N)=O)nn2)nn1)C(N)=O)CSCCC3=O [BCY18604] | 0.0079 | enhanced NK cytotoxicity |  | 
CC(=O)N[C@H]1CSCCC(=O)N2CN3CN(C2)C(=O)CCSC[C@H](NC(=O)[C@H](CC(C)C)NC(=O)[C@H](Cc2ccc(O)cc2)NC(=O)[C@H](CC(=O)O)NC(=O)[C@@H]2CCCN2C(=O)[C@H](CC2CCC2)NC(=O)[C@H](Cc2ccc(O)cc2)NC1=O)C(=O)N[C@H](C)C(=O)N[C@@H](CC(=O)O)C(=O)N[C@@H](CCC(=O)O)C(=O)N[C@@H](Cc1ccc(O)cc1)C(=O)N[C@H](C(=O)N[C@@H](CCCCNC(=O)CCc1cn(CCOCCOCCOCCOCCOCCOCCOCCOCCOCCOCCOCCOCCOCCOCCOCCOCCOCCOCCOCCOCCOCCOCCOCCOCCC(=O)N[C@@H](C)C(=O)N[C@@H](CCCCNC(=N)N)C(=O)N[C@@H](CC(=O)O)C(=O)N[C@H]2CSCCC(=O)N4CN5CN(C4)C(=O)CCSC[C@H](NC(=O)[C@H](CC(C)C)NC(=O)[C@@H]4CCCN4C(=O)[C@H](CC(N)=O)NC(=O)[C@H](C(C)C)NC(=O)[C@H](CC(C)C)NC(=O)[C@@H]4C[C@@H](O)CN4C2=O)C(=O)N[C@@H](CC(C)C)C(=O)N[C@@H](Cc2c[nH]cn2)C(=O)N2CCC[C@H]2C(=O)N[C@H](CC(=O)O)C(=O)N[C@@H](Cc2c[nH]c4ccccc24)C(=O)N[C@@H](CCCCNC(=N)N)C(=O)N[C@H](C(N)=O)CSCCC5=O)nn1)C(N)=O)CSCCC3=O [BCY18731] (I: A[hArg]DC[Hyp]LVNPLCLHP[dD]W[hArg]C-NH2 / II: Ac-CY[Cba]PDYLC[dA]DEYCK-NH2; linker I:4-I:11-I:18, II:1-II:8-II:13 via TATA; linker I:N-II:14 via X3; C-terminus assumed) | 0.018 |  |  | 
BCY17235: EphA2 peptide BCY9594 linked to NKp46 peptide (BCY17224) and CD16a peptide (BCY13883) via a TCA-[Peg23]3 linker (peptide 1 A[hArg]DC[Hyp]LVNPLCLHP[dD]W[hArg]C; peptide 2 Ac-CY[Cba]PDYLC[dA]DEYCK(Pent4ynoyl); peptide 3 ACRWSVEDPCGAWCAK(Pent4ynoyl); linker I:4-I:11-I:18, II:1-II:8-II:13 via TATA; linker III:2-III:10-III:14 via TBMT; also: chain 1 N-terminus and the K(PYA) of chains 2 and 3 joined through TCA-[Peg23]3 linker) |  | enhanced, dose-dependent effect on tumor cell killing | 0.014 | 
I: A[hArg]DC[Hyp]LVNPLCLHP[dD]W[hArg]C-NH2 / II: ACNLQAPCMQTGKVCAK-NH2 / III: ACNLQAPCMQTGKVCAK-NH2 (linker I:4-I:11-I:18, II:2-II:8-II:15, III:2-III:8-III:15 via TATA; linker I:N-II:17-III:17 via X1; C-terminus assumed) [BCY15924] |  | enhanced NK cytotoxicity |  | 0.5
I: A[hArg]DC[Hyp]LVNPLCLHP[dD]W[hArg]C-NH2 / II: Ac-CY[Cba]PDYLC[dA]DEYCK-NH2 / III: Ac-CY[Cba]PDYLC[dA]DEYCK-NH2 (linker I:4-I:11-I:18, II:1-II:8-II:13, III:1-III:8-III:13 via TATA; linker I:N-II:14-III:14 via X1; C-terminus assumed) [BCY17226] | 0.0061 | dose-dependent NK cell response to kill |  | 
I: Ac-D[hArg]CSAGWLTMCQKLHLCPSH-NH2 / II: Ac-CY[Cba]PDYLC[dA]DEYCK-NH2 / III: Ac-CY[Cba]PDYLC[dA]DEYCK-NH2 (linker I:3-I:11-I:17, II:1-II:8-II:13, III:1-III:8-III:13 via TATA; linker I:13-II:14-III:14 via X1; C-terminus assumed) [BCY18603] | 0.003 | enhanced NK cytotoxicity |  | 
